We go through eight molecules from ChEMBL document CHEMBL1130618, “A novel and practical route to A-ring enyne synthon for 1 alpha,25-dihydroxyvitamin D3 analogs: synthesis of A-ring diastereomers of 1 alpha,25-dihydroxyvitamin D2 and 3-methyl-1,25-dihydroxyvitamin D3” (1998).

For assay [1], the system named is HL-60. Description: HL-60 cell differentiation relative to 1-alpha, 25-dihydroxyvitamin D3. Type of assay: functional, Homo sapiens.
The species named for assay [2] is Rattus norvegicus. Description: Compound was evaluated for rat serum Ca concentration in relative to 1-alpha, 25-dihydroxyvitamin D3. The assay is classed as functional.
For assay [3], the system named is HL-60. Description: Effect on HL-60 cell differentiation. Type of assay: functional, Homo sapiens.
Assay [4] deals with T1, Vitamin D3 receptor (Bos taurus) (UniProt Q28037).
T1 sequence (whole entry): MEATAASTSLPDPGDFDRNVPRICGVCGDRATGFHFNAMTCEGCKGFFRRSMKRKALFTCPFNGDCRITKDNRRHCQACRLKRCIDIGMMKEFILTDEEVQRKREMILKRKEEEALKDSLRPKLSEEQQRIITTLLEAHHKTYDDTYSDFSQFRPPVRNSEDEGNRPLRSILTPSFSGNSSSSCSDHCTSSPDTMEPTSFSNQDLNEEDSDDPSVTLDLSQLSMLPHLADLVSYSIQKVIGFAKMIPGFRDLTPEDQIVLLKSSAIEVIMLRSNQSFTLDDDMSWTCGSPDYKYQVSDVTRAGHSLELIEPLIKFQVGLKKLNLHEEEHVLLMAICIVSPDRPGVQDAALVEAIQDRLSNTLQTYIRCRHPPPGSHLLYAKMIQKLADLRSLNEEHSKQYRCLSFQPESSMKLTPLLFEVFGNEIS
Description: Binding affinity for bovine thymus Vitamin D3 receptor (VDR).

The species named for assay [5] is Rattus norvegicus. Description: Compound was evaluated for rat serum Ca concentration. Type of assay: functional.

`C=C1/C(=C\C=C2/CCC[C@]3(C)[C@@H]([C@H](C)CCCC(C)(C)O)CC[C@@H]23)C[C@@H](O)[C@@H](C)[C@H]1O` registered a Relative potency in assay [1] of 1.5.
For `C=C1/C(=C\C=C2/CCC[C@]3(C)[C@@H]([C@H](C)CCCC(C)(C)O)CC[C@@H]23)C[C@@H](O)[C@@H](C)[C@@H]1O`, the Relative potency is recorded as 10 in assay [1] and 2 in assay [2].
`C=C1/C(=C\C=C2/CCC[C@]3(C)[C@@H]([C@H](C)CCCC(C)(C)O)CC[C@@H]23)C[C@H](O)[C@@H](C)[C@@H]1O` came in with a Relative potency in assay [1] of 1.5.
Same read-out and setting: under `C=C1/C(=C\C=C2/CCC[C@]3(C)[C@@H]([C@H](C)CCCC(C)(C)O)CC[C@@H]23)C[C@@H](O)[C@H](C)[C@H]1O` stands 1; under `C=C1/C(=C\C=C2/CCC[C@]3(C)[C@@H]([C@H](C)CCCC(C)(C)O)CC[C@@H]23)C[C@H](O)[C@H](C)[C@H]1O`, 0.5.
`C=C1/C(=C\C=C2/CCC[C@]3(C)[C@@H]([C@H](C)CCCC(C)(C)O)CC[C@@H]23)C[C@@H](O)C[C@@H]1O` [CALCITRIOL]: the Relative potency in assay [3], in assay [4] and in assay [5] was 100 throughout.
With `C=C1/C(=C\C=C2/CCC[C@]3(C)[C@@H]([C@H](C)CCCC(C)(C)O)CC[C@@H]23)C[C@@H](O)[C@H](C)[C@@H]1O`, the values for the Relative potency in assay [1] and in assay [2] were 200 and 400, respectively.
`C=C1/C(=C\C=C2/CCC[C@]3(C)[C@@H]([C@H](C)CCCC(C)(C)O)CC[C@@H]23)C[C@H](O)[C@@H](C)[C@H]1O`: in assay [1], the Relative potency stood at 3.
